The target of one experiment is T1, EGFR^T790M/L858R (Homo sapiens, UniProt P00533, L858R/T790M).
T1 construct: purchased Millipore
As to the kind of experiment: kinase inhibitory activity test (ELISA), EGFR^T790M/L858R. It counts as biochemical. The note with it: ELISA, ATP 5 μM, 1 hour at 37° C. Here is the method: (§1) The enzyme substrate poly (glutamic acid, tyrosine)4:1 (Sigma) was diluted with potassium-free PBS (10 mM sodium phosphate buffer, 150 mM NaCl, pH 7.2-7.4) to 20 μg/mL, plate coated with 125 μL/well, reacted for 12-16 hours at 37° C. After the liquid in the wells was discarded, the plates were washed three times with 200 μL/well of T-PBS (PBS containing 0.1% Tween-20), and each time for 5 minutes, and then dried for 1-2 hours in an oven at 37° C. 50 μL of ATP solution diluted with reaction buffer (50 mM HEPES pH 7.4, 50 mM MgCl2, 5 mM MnCl2, 0.2 mM Na3VO4, 1 mM DTT) was added into each well and the final concentration was 5 μM. The compounds were diluted with 1% DMSO to suitable concentrations and were added at 10 μL/well. […] The above reaction system was reacted for 1 hour at 37° C. shaking table (100 rpm). Control wells with no enzyme and control wells with DMSO solvent were set in each experiment. After the reaction was completed, the plates were washed three times with T-PBS. The anti-phosphotyrosine primary antibody PY99 (Santa Cruz) was added at 100 μL/well and the antibody was diluted with T-PBS containing BSA 5 mg/mL by 1:1000. The mixture was reacted for 0.5 h at 37° C. shaking table, the plates were washed three times with T-PBS. The secondary antibody which was horseradish peroxidase-labeled goat anti-mouse IgG was added at 100 μL/well (the antibody was diluted with T-PBS containing BSA 5 mg/mL by 1:2000). The mixture was reacted for 0.5 h at 37° C. shaking table, the plates were washed three times with T-PBS. 2 l/mL of OPD coloring solution was added at 100 μL/well (diluted with 0.1 M citric acid-sodium citrate buffer (pH=5.4) containing 0.03% H2O2) and dark reacted for 1 to 10 minutes at 25° C. 2 M H2SO4 was added at 50 μL/well to terminate the reaction. Reading was carried out with an adjustable wavelength microplate enzyme-labeled instrument SPECTRA MAX 190 at 490 nm wavelength.
(§2) The IC50 value was calculated by the four-parameter fitting of the suppression curve.

Experiment [1] concerns human non-small cell lung cancer NCI-H1975 cell line. As to the kind of experiment: SRB proliferation assay, NCI-H1975 cells. The experiment is classed as cell-based. Conditions: NCI-H1975, SRB, 72 h, read-out: IC50 NCI-H1975. Here is the method: (§3) Cell lines: human epidermal carcinoma A431 cell line and human non-small cell lung cancer NCI-H1975 cell line was purchased from the American Standard Biology Collection Center (ATCC).
Methods: sulforhodamine B (SRB) method, which was as follows: certain number of different tumor cells in logarithmic growth phase were inoculated on 96-well culture plates. After cultured for 24 h to cell adherence, different concentrations of the test compounds of the invention were added. Each concentration was provided with three wells, and a corresponding concentration of DMSO solvent control and a cell-free zeroing well were set. After the cells were treated with the medicine for 72 h, the culture medium was discarded and 100 μL of 10% pre-cooled trichloroacetic acid solution was added to fix the cells. After placed for 1 h at 4° C., it was washed for 5 times with distilled water and dried naturally. Then 100 μL SRB (4 mg/mL) (Sigma) solution was added and stained for 15 min at room temperature. The staining solution was discarded and washed for 5 times with 1% glacial acetic acid and dried. Finally, 150 μL of 10 mM Tris solution (pH 10.5) was added and the OD value was measured at 515 nm with adjustable wavelength microplate enzyme-labeled instrument (VERSAmax™, Molecular Device Corporation, Sunnyvale, Calif., USA). […] Based on the inhibitory effect of the 2-aminopyrimidine compounds on the growth of these cells, the half maximal inhibitory concentration (IC50) values were calculated, as shown in Table 2.
Background: The SRB assay estimates cell density from bound dye.

For the next experiment, the target named is T2, IGF-1R (Homo sapiens, UniProt P08069).
T2 construct: purchased Millipore
T2 sequence (P08069 31-1367): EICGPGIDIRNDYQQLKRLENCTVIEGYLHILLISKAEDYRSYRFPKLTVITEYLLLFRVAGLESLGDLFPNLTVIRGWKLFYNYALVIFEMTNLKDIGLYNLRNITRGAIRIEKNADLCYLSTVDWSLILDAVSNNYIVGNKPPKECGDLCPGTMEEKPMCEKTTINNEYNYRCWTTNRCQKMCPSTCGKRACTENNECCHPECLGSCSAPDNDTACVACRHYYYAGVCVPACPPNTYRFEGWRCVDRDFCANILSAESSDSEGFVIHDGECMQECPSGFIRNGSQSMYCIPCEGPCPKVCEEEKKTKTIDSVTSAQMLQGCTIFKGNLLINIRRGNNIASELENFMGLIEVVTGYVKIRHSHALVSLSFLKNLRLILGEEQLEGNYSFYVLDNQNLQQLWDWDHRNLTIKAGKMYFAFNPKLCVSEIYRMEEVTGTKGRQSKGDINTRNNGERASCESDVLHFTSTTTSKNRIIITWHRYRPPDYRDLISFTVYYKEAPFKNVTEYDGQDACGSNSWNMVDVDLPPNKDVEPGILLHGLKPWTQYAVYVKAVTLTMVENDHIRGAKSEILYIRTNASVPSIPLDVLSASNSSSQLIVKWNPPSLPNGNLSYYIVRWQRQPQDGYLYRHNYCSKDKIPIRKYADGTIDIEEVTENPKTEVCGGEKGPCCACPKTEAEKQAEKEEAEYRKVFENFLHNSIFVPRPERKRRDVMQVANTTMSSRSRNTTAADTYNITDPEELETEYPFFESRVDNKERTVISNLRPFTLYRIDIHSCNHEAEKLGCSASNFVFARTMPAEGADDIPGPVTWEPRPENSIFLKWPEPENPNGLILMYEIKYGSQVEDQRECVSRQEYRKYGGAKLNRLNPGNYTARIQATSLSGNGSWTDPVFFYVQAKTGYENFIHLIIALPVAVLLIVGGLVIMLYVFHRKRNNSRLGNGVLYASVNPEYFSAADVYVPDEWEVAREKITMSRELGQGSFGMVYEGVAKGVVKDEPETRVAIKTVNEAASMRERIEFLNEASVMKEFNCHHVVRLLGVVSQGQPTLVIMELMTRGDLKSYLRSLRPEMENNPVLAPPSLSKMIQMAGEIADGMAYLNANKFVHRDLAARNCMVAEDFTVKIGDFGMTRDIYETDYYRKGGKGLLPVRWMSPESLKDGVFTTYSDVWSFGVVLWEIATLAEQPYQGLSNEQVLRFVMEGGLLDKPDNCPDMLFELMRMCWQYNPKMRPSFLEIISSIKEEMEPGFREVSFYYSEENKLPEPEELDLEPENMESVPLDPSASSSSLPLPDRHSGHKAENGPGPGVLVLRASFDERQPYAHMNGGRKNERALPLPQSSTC
As to the kind of experiment: kinase inhibitory activity test (ELISA), IGF-1R. It counts as biochemical. The note with it: ATP 5 μM, 1 hour at 37° C. Here is the method: The enzyme substrate poly (glutamic acid, tyrosine)4:1 (Sigma) was diluted with potassium-free PBS (10 mM sodium phosphate buffer, 150 mM NaCl, pH 7.2-7.4) to 20 μg/mL, plate coated with 125 μL/well, reacted for 12-16 hours at 37° C. After the liquid in the wells was discarded, the plates were washed three times with 200 μL/well of T-PBS (PBS containing 0.1% Tween-20), and each time for 5 minutes, and then dried for 1-2 hours in an oven at 37° C. 50 μL of ATP solution diluted with reaction buffer (50 mM HEPES pH 7.4, 50 mM MgCl2, 5 mM MnCl2, 0.2 mM Na3VO4, 1 mM DTT) was added into each well and the final concentration was 5 μM. The compounds were diluted with 1% DMSO to suitable concentrations and were added at 10 μL/well. Then different types of tyrosine kinase proteins (including EGFR^wt, EGFR^T790M/L858R and IGF-1R, purchased from Millipore) diluted with 40 μL of reaction buffer were added. The above reaction system was reacted for 1 hour at 37° C. shaking table (100 rpm). Control wells with no enzyme and control wells with DMSO solvent were set in each experiment. After the reaction was completed, the plates were washed three times with T-PBS. The anti-phosphotyrosine primary antibody PY99 (Santa Cruz) was added at 100 μL/well and the antibody was diluted with T-PBS containing BSA 5 mg/mL by 1:1000. The mixture was reacted for 0.5 h at 37° C. shaking table, the plates were washed three times with T-PBS. The secondary antibody which was horseradish peroxidase-labeled goat anti-mouse IgG was added at 100 μL/well (the antibody was diluted with T-PBS containing BSA 5 mg/mL by 1:2000). The mixture was reacted for 0.5 h at 37° C. shaking table, the plates were washed three times with T-PBS. 2 l/mL of OPD coloring solution was added at 100 μL/well (diluted with 0.1 M citric acid-sodium citrate buffer (pH=5.4) containing 0.03% H2O2) and dark reacted for 1 to 10 minutes at 25° C. 2 M H2SO4 was added at 50 μL/well to terminate the reaction. Reading was carried out with an adjustable wavelength microplate enzyme-labeled instrument SPECTRA MAX 190 at 490 nm wavelength.
as §2
(In general: ELISA stands for enzyme-linked immunosorbent assay.)

Experiment [2] concerns human epidermal carcinoma A431 cell line. As to the kind of experiment: SRB proliferation assay, A431 cells. The note with it: A-431, SRB, 72 h, read-out: IC50 A431. The experiment is classed as cell-based. Here is the method: as §3
Methods: sulforhodamine B (SRB) method, which was as follows: certain number of different tumor cells in logarithmic growth phase were inoculated on 96-well culture plates. After cultured for 24 h to cell adherence, different concentrations of the test compounds of the invention were added. Each concentration was provided with three wells, and a corresponding concentration of DMSO solvent control and a cell-free zeroing well were set. After the cells were treated with the medicine for 72 h, the culture medium was discarded and 100 μL of 10% pre-cooled trichloroacetic acid solution was added to fix the cells. After placed for 1 h at 4° C., it was washed for 5 times with distilled water and dried naturally. Then 100 μL SRB (4 mg/mL) (Sigma) solution was added and stained for 15 min at room temperature. The staining solution was discarded and washed for 5 times with 1% glacial acetic acid and dried. Finally, 150 μL of 10 mM Tris solution (pH 10.5) was added and the OD value was measured at 515 nm with adjustable wavelength microplate enzyme-labeled instrument (VERSAmax™, Molecular Device Corporation, Sunnyvale, Calif., USA).

Another experiment concerns the target T3, EGFR^wt (Homo sapiens, UniProt P00533).
T3 construct: purchased Millipore
The experiment is described as follows: kinase inhibitory activity test (ELISA), EGFR^WT. The experiment is classed as biochemical. The note with it: ATP 5 μM, 1 hour at 37° C. Here is the method: as §1, §2

T3 sequence (P00533 25-1210): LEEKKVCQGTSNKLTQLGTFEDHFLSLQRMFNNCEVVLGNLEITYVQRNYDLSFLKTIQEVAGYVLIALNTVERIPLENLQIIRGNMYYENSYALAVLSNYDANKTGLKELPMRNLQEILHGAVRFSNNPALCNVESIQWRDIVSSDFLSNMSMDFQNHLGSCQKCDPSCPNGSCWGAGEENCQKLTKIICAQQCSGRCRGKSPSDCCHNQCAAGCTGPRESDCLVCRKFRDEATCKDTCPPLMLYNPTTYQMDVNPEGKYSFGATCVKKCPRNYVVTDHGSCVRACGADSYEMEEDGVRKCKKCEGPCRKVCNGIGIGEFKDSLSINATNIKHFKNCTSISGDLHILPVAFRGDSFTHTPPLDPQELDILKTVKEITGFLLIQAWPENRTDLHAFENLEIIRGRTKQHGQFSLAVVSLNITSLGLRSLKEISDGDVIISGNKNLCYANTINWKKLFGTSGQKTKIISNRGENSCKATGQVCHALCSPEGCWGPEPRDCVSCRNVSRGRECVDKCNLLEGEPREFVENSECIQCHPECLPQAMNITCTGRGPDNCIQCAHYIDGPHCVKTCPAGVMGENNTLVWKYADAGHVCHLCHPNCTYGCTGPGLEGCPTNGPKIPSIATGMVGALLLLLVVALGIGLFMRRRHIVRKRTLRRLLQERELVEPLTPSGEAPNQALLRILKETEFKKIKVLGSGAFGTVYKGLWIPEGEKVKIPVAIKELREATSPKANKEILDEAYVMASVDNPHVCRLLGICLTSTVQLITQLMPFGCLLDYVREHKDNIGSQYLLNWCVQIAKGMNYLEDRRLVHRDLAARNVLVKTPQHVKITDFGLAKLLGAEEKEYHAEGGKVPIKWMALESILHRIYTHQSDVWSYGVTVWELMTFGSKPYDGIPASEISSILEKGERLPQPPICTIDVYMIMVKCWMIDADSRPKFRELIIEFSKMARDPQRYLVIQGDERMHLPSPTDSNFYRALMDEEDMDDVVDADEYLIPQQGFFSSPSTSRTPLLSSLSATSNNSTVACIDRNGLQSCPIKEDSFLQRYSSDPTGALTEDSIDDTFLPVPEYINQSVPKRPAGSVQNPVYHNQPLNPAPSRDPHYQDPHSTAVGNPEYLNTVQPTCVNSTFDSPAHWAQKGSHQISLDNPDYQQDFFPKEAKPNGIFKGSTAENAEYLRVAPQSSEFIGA
T1 sequence (P00533 25-1210 T790M/L858R): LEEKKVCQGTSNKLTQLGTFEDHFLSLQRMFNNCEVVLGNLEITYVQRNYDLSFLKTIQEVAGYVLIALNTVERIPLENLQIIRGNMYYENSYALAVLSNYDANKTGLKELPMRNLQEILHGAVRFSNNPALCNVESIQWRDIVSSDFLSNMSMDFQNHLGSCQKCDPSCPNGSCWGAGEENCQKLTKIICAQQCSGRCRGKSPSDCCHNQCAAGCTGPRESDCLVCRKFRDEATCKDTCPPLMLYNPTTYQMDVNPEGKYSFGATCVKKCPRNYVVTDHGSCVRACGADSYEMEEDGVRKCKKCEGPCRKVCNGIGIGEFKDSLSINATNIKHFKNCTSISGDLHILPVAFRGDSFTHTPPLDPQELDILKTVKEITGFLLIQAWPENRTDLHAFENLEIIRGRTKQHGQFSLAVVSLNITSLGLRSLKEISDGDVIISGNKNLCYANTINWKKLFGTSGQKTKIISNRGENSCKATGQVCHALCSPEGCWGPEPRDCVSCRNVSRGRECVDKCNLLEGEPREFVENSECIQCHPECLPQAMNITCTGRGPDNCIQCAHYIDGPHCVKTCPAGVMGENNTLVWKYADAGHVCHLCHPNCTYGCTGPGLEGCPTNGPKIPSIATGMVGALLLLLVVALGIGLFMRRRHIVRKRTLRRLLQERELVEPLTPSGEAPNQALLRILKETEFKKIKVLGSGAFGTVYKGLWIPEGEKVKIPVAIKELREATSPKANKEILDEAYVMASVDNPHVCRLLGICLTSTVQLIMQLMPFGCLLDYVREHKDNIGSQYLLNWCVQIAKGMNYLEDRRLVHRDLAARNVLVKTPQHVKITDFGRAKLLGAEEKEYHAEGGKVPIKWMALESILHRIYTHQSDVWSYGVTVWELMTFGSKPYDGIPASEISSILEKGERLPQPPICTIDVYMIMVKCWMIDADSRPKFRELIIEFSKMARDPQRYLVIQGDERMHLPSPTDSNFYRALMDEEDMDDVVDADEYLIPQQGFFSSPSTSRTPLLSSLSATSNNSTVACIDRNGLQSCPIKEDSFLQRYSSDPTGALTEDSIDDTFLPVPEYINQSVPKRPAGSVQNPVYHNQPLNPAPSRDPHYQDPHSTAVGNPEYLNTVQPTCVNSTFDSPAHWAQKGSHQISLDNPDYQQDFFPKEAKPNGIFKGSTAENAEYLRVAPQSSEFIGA

With `COc1ccc(NC(=O)/C=C/CN(C)C)cc1Nc1ncc(Cl)c(Nc2cnc3ccccc3c2)n1` [CCB145221, (E)-N-((3-((5-chloro-4-((quinolin-3-yl)amino))pyrimidin-2-yl)amino)-4-methoxyphenyl)-4-(dimethylamino)-2-butenamide], the IC50 – broadly, the concentration that inhibits the measured activity by half – against EGFR^T790M/L858R turned out to be 37.6 nM; in experiment [1], 170 nM; at IGF-1R it was 12.5 nM; in experiment [2], 646 nM; against EGFR^wt, 848 nM.

`COc1ccc(NC(=O)/C=C/CN(C)C)cc1Nc1ncc(Cl)c(Nc2ccc3[nH]ccc3c2)n1` [CCB145231, (E)-N-((3-((5-chloro-4-((indol-5-yl)amino))pyrimidin-2-yl)amino)-4-methoxyphenyl)-4-(dimethylamino)-2-butenamide]: the IC50 turned out to be 30.8 nM at EGFR^T790M/L858R; 289 nM in experiment [1]; 38 nM at IGF-1R; 615 nM in experiment [2]; 295 nM on EGFR^wt.

For the compound `COc1ccc(NC(=O)/C=C/CN(C)C)cc1Nc1nccc(Nc2ccc3ccccc3c2)n1` [CCB145242, (E)-N-((3-(4-((naphthalen-2-yl)amino)pyrimidin-2-yl)amino)-4-methoxyphenyl)-4-(dimethylamino)-2-butenamide], the half-maximal inhibitory concentration (IC50) at EGFR^T790M/L858R turned out to be 56.6 nM; in experiment [1], 885 nM; against IGF-1R, 98.5 nM; in experiment [2], 1040 nM; against EGFR^wt it was 54.1 nM.

As to `COc1ccc(NC(=O)/C=C/CN(C)C)cc1Nc1ncc(Cl)c(Oc2ccc3ccccc3c2)n1` [CCB145260, (E)-N-((3-((5-chloro-4-((naphthalen-2-yl)oxy))pyrimidin-2-yl)amino)-4-methoxyphenyl)-4-(dimethylamino)-2-butenamide], the IC50 against EGFR^T790M/L858R was 293 nM; in experiment [1] it was 2040 nM; against IGF-1R it was 297 nM; in experiment [2] it was 17800 nM; at EGFR^wt, above 10000 nM.

With `COc1ccc(NC(=O)/C=C/CN(C)C)cc1Nc1ncc(OC)c(Nc2ccc3ccccc3c2)n1` [CCB145268, (E)-N-((3-((5-methoxy-4-((naphthalen-2-yl)amino))pyrimidin-2-yl)amino)-4-methoxyphenyl)-4-(dimethylamino)-2-butenamide], the IC50 turned out to be 102 nM against EGFR^T790M/L858R; 1160 nM in experiment [1]; 182 nM on IGF-1R; 1110 nM in experiment [2]; 225 nM at EGFR^wt.

On to `COc1ccc(NC(=O)/C=C/CN(C)C)cc1Nc1ncc(C(F)(F)F)c(Nc2ccc3ccccc3c2)n1` [CCB145274, (E)-N-((3-((5-trifluoromethyl-4-((naphthalen-2-yl)amino))pyrimidin-2-yl)amino)-4-methoxyphenyl)-4-(dimethylamino)-2-butenamide], for which the IC50 is 31.3 nM against EGFR^T790M/L858R; 682 nM in experiment [1]; 41 nM against IGF-1R; 1220 nM in experiment [2]; 2070 nM at EGFR^wt.

Consider `COc1ccc(NC(=O)/C=C/CN(C)C)cc1Nc1ncc(C(C)C)c(Nc2ccc3ccccc3c2)n1` [CCB145283, (E)-N-((3-((5-isopropyl-4-((naphthalen-2-yl)amino))pyrimidin-2-yl)amino)-4-methoxyphenyl)-4-(dimethylamino)-2-butenamide], for which the IC50 came to 151 nM against EGFR^T790M/L858R; 860 nM in experiment [1]; 85.2 nM against IGF-1R; 1040 nM in experiment [2]; 2290 nM against EGFR^wt.

For the compound `COc1ccc(NC(=O)/C=C/CN(C)C)cc1Nc1ncc(Br)c(Nc2ccc3ccccc3c2)n1` [CCB145286, (E)-N-((3-((5-bromo-4-((naphthalen-2-yl)amino))pyrimidin-2-yl)amino)-4-methoxyphenyl)-4-(dimethylamino)-2-butenamide], the IC50 was 22.5 nM at EGFR^T790M/L858R; 416 nM in experiment [1]; 20.5 nM against IGF-1R; 1120 nM in experiment [2]; 254 nM against EGFR^wt.

As to `COc1ccc(NC(=O)/C=C/CN(C)C)cc1Nc1ncc(F)c(Nc2ccc3ccccc3c2)n1` [CCB145287, (E)-N-((3-((5-fluoro-4-((naphthalen-2-yl)amino))pyrimidin-2-yl)amino)-4-methoxyphenyl)-4-(dimethylamino)-2-butenamide], the concentration for half-maximal inhibition (IC50) was 32 nM on EGFR^T790M/L858R; 375 nM in experiment [1]; 151 nM against IGF-1R; 611 nM in experiment [2]; 131 nM against EGFR^wt.

Regarding `COc1ccc(NC(=O)/C=C/CN(C)C)cc1Nc1ncc(C)c(Nc2ccc3ccccc3c2)n1` [CCB145289, (E)-N-((3-((5-methyl-4-((naphthalen-2-yl)amino))pyrimidin-2-yl)amino)-4-methoxyphenyl)-4-(dimethylamino)-2-butenamide], the 50% inhibitory concentration (IC50) at EGFR^T790M/L858R turned out to be 72.9 nM; in experiment [1], 1000 nM; at IGF-1R, 103 nM; in experiment [2] it was 839 nM; against EGFR^wt, 232 nM.

On to `COc1ccc(NC(=O)/C=C/CN(C)C)cc1Nc1ncc(Cl)c(Sc2ccc3ccccc3c2)n1` [CCB145291, (E)-N-((3-((5-chloro-4-((naphthalen-2-yl)sulfenyl))pyrimidin-2-yl)amino)-4-methoxyphenyl)-4-(dimethylamino)-2-butenamide], for which the half-maximal inhibitory concentration (IC50) at EGFR^T790M/L858R is 159 nM; in experiment [1], 2780 nM; against IGF-1R, 347 nM; in experiment [2] it was 11100 nM; at EGFR^wt, at least 10000 nM.

The record behind these values is patent publication US10059694B2, “2-aminopyrimidine compound and pharmaceutical composition and use thereof” (Shanghai Institute of Materia Medica, Chinese Academy of …, priority 2014, dated 2018).
